Among the data in patent publication US8207169B2, “Substituted [1,2,4]triazolo[4′,3′:1,6]pyrido[2,3-b]pyrazines of the formula D” (MSD K.K., priority 2008, dated 2012) are IC50 values, retold here.

One may read the IC50 as the concentration that inhibits the measured activity by half.

Test [1] deals with T1, Akt2 kinase (Homo sapiens, UniProt P31751).
T1 construct: a middle T tag was added to the 5′ end of the full length Akt2 using the PCR primer; biotin tag (from pS2neo vector); made in house; host or cells: Drosophila S2 cells
Kind of test: Akt kinase assay (HTRF, GSK-derived biotinylated peptide substrate). The class given is biochemical. The note with it: activated Akt2 kinase. Here is the method:
(§1) Activated Akt isoforms and pleckstrin homology domain deletion constructs were assayed utilizing a GSK-derived biotinylated peptide substrate. The extent of peptide phosphorylation was determined by Homogeneous Time Resolved Fluorescence (HTRF) using a lanthanide chelate(Lance)-coupled monoclonal antibody specific for the phosphopeptide in combination with a streptavidin-linked allophycocyanin (SA-APC) fluorophore which will bind to the biotin moiety on the peptide. When the Lance and APC are in proximity (i.e. bound to the same phosphopeptide molecule), a non-radiative energy transfer takes place from the Lance to the APC, followed by emission of light from APC at 665 nm.
(§2) Materials Required for the Assay:
(§3) A. Activated Akt isozyme or pleckstrin homology domain deleted construct
(§4) B. Akt peptide substrate: GSK3α (S21) Peptide #3928 biotin-GGRARTSSFAEPG (SEQ. ID. NO.:15), Macromolecular Resources.
(§5) C. Lance labeled anti-phospho GSK3α monoclonal antibody (Cell Signaling Technology, clone #27).
(§6) D. SA-APC (Prozyme catalog no. MS lot #896067).
(§7) E. Microfluor®B U Bottom Microtiter Plates (Dynex Technologies, Catalog no. 7205).
(§8) F. Discovery® HTRF Microplate Analyzer, Packard Instrument Company.
(§9) G. 100× Protease Inhibitor Cocktail (PIC): 1 mg/mL benzamidine, 0.5 mg/mL pepstatin, 0.5 mg/mL leupeptin, 0.5 mg/mL aprotinin.
(§10) H. 10× Assay Buffer: 500 mM HEPES, pH 7.5, 1% PEG, […], 1 mM EGTA, 1% BSA, 20 mM ∂-Glycerol phosphate.
(§11) I. Quench Buffer: 50 mM HEPES pH 7.3, 16.6 mM EDTA, 0.1% BSA, 0.1% Triton X-100, 0.17 nM Lance labeled monoclonal antibody clone #27, 0.0067 mg/mL SA-APC
(§12) J. ATP/MgCl2 working solution: 1× Assay buffer, 1 mM DTT, 1×PIC, 125 mM KCl, 5% Glycerol, 25 mM MgCl2, 375 μM ATP
(§13) K. Enzyme working solution: 1× Assay buffer, 1 mM DTT, 1×PIC, 5% Glycerol, active Akt. The final enzyme concentrations were selected so that the assay was in a linear response range.
(§14) L. Peptide working solution: 1× Assay buffer, 1 mM DTT, 1×PIC, 5% Glycerol, 2 μM GSK3 biotinylated peptide #3928
(§15) The reaction is assembled by adding […] of the ATP/MgCl2 working solution to the appropriate wells of a 96-well microtiter plate. Inhibitor or vehicle (1.0 μL) is added followed by 10 μL of peptide working solution. The reaction is started by adding 13 μl, of the enzyme working solution and mixing. The reaction is allowed to proceed for 50 min and then stopped by the addition of 60 μL, HTRF quench buffer. The stopped reactions were incubated at room temperature for at least 30 min and then read on the Discovery instrument.
For orientation: In TR-FRET formats the signal depends on donor and acceptor labels being close together.

In test [2] the target is T2, Akt1 kinase (Homo sapiens, UniProt P31749).
T2 construct: a middle T tag was added to the 5′ end of the full length Akt1 gene; biotin tag (from pS2neo vector); made in house; host or cells: Drosophila S2 cells
Described as above. The format is biochemical. The note with it: activated Akt1 kinase. Here is the method:
as §1, §2, §3, §4, §5, §6, §7, §8, §9, §10, §11, §12, §13, §14, §15

Each structure is given as a SMILES string.

T2 sequence (P31749 whole entry): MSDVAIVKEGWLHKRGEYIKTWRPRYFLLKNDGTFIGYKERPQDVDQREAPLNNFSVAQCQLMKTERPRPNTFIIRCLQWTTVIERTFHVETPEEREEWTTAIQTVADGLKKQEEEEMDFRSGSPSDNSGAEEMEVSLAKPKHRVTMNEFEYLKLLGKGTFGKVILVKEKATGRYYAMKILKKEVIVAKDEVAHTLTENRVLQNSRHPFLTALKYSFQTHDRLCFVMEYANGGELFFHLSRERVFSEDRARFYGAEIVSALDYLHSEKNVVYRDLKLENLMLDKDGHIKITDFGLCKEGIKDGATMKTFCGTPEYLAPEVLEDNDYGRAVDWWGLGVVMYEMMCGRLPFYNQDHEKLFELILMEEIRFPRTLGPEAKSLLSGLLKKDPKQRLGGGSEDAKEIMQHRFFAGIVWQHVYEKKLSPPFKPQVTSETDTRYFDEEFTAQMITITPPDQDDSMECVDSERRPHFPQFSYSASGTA
T1 sequence (P31751 whole entry): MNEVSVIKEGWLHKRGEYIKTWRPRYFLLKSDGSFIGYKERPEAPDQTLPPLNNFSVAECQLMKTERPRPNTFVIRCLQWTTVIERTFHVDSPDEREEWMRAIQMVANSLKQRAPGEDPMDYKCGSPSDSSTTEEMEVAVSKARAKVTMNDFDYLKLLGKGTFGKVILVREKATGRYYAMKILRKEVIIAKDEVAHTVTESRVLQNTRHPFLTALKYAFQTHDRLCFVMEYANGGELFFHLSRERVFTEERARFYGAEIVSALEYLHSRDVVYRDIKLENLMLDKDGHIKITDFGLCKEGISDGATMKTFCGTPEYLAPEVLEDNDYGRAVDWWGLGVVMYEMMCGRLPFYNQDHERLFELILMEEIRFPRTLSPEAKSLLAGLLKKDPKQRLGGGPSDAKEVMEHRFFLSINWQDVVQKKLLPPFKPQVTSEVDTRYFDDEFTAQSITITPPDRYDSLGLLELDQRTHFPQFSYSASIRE

In the case of `N[C@]1(c2ccc(-c3nc4ccc5nnc(-c6ccc(O)cc6)n5c4nc3-c3ccccc3)cc2)C[C@](O)(C2CC2)C1` [EXAMPLE 3-14, 4-{3-[4-(trans-1-amino-3-cyclopropyl-3-hydroxycyclobutyl)phenyl]-2-phenyl[1,2,4]triazolo[4′,3′:1,6]pyrido[2,3-b]pyrazin-9-yl]phenol], the concentration for half-maximal inhibition (IC50) in test [1] worked out at 11 nM; in test [2], 0.3 nM.
On the same counts, the results for `N[C@]1(c2ccc(-c3nc4ccn5c(-c6ncccn6)nnc5c4cc3-c3ccccc3)cc2)C[C@](O)(C2CC2)C1` [EXAMPLE 2-14, trans-3-amino-1-cyclopropyl-3-{-4-[9-phenyl-3-(2-pyrimidinyl)-[1,2,4]triazolo[3,4-f]-1,6-naphthyridin-8-yl]phenyl}cyclobutanol] are 4 nM and 0.3 nM.
On the same counts, the results for `C[C@]1(O)C[C@@](N)(c2ccc(-c3nc4ccc5nnc(-c6cccnc6)n5c4nc3-c3ccccc3)cc2)C1` [EXAMPLE 3-7, trans-3-amino-1-methyl-3-{4-[2-phenyl-9-(3-pyridinyl)[1,2,4]triazolo-[4′,3′:1,6]pyrido[2,3-b]pyrazin-3-yl]phenyl}cyclobutanol] are 4 nM and 0.4 nM.
On the same counts, the results for `Cc1nc(-c2nnc3c4cc(-c5ccccc5)c(-c5ccc(C6(N)CC(F)(F)C6)cc5)nc4ccn23)n[nH]1` [EXAMPLE 5-16, 3,3-difluoro-1-{4-[3-(5-methyl-1H-1,2,4-triazol-3-yl)-9-phenyl[1,2,4]triazolo[3,4-f]-1,6-naphthyridin-8-yl]phenyl}cyclobutanamine] are 84.3 nM and 4.7 nM.
For `NC1(c2ccc(-c3nc4ccn5c(-c6ncccn6)nnc5c4cc3-c3ccccc3)cc2)CC(F)(F)C1` [EXAMPLE 2-10, 3,3-difluoro-1-{4-[9-phenyl-3-(2-pyrimidinyl)[1,2,4]triazolo[3,4-f]-1,6-naphthyridin-8-yl]phenyl}cyclobutanamine], the IC50 came out at 44.4 nM in test [1] and 6 nM in test [2].
On the same counts, the results for `NC1(c2ccc(-c3nc4ccc5nnc(CCC(F)(F)F)n5c4nc3-c3ccccc3)cc2)CC(O)(C2CC2)C1` (stereo not drawn) [EXAMPLE 3-20, trans-3-amino-1-cyclopropyl-3-{4-[2-phenyl-9-(3,3,3-trifluoropropyl)[1,2,4]triazolo[4′,3′:1,6]pyrido[2,3-b]pyrazin-3-yl]phenyl}cyclobutanol] are 6.3 nM and 0.5 nM.
